Reference: patent US10428080B2, “TBK/IKK inhibitor compounds and uses thereof” (Merck Patent GmbH, priority 2015, dated 2019)
Counter-ions that a name gives are not always drawn. Like-named read-outs stand apart in the source and are kept apart here.

Key:
TBK1 = target: T1, TBK1 (Homo sapiens, UniProt Q9UHD2); test: TBK Biochemical Assay; details: read-out: TBK1 IC50
T1 sequence (Q9UHD2 1-729): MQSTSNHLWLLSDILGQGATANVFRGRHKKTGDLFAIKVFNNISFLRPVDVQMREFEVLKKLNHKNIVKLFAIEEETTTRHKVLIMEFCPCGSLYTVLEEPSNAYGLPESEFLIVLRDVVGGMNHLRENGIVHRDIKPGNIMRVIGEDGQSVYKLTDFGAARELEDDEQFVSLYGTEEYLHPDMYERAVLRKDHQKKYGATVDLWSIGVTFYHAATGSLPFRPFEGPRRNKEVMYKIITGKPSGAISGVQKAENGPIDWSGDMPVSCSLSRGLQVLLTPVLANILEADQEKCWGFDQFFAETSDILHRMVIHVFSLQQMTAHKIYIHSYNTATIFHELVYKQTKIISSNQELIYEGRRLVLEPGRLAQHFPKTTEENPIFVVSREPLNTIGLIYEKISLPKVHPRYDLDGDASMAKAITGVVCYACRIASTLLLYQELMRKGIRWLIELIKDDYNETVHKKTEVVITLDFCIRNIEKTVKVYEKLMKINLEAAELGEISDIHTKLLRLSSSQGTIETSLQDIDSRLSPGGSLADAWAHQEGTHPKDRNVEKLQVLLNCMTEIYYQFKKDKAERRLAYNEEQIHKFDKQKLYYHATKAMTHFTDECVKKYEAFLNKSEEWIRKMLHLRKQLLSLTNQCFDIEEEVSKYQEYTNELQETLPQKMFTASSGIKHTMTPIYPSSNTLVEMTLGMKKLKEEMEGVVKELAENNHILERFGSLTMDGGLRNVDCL
Procedure, shortened: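 Caliper LabChip mobility-shift readout of substrate and product after 90 min of TBK1 reaction at 25° C and stop-buffer addition. Compounds tested in 1:4 serial dilution over 10 points from 30 uM final at 1% DMSO; staurosporine 10 uM final defines full inhibition.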

IKKε = target: T2, IKKε (Homo sapiens, UniProt Q14164); test: IKKe Biochemical Assay; details: read-out: IKKε IC50
T2 sequence (Q14164 1-716): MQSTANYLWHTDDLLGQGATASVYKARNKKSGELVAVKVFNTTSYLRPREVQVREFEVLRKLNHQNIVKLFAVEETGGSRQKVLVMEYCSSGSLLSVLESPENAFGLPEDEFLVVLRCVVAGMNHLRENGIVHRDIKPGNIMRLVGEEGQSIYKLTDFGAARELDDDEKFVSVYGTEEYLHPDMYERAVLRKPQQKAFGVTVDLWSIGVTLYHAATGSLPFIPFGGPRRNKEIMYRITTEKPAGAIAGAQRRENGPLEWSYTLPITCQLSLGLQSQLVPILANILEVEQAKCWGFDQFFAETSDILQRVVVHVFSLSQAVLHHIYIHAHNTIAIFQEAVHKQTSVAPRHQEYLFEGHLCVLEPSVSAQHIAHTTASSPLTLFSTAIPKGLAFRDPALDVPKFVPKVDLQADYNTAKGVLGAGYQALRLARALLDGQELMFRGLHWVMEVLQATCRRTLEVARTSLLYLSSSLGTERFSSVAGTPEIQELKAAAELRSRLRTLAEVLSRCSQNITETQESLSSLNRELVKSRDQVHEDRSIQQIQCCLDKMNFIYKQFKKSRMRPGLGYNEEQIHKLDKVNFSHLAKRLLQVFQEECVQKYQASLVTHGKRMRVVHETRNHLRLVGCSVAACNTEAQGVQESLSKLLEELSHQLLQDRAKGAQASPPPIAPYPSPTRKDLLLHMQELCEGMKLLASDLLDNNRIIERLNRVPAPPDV
Procedure, shortened: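 Activity was measured as mobility-shift separation of phosphorylated from unphosphorylated substrate on a LabChip EZ Reader. Compound was titrated from 30 uM final in 10 points, 1:4 steps, with 1% DMSO, and enzyme plus substrate reacted 90 min at 25° C before stop buffer. Control wells held 10 uM staurosporine.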

[1] = test system: phosphorylation of the IRF-3 protein in MDA-MB-468 cells; test: pIRF3 immunocytochemistry cell based assay; details: Homo sapiens
Method: The purpose of the pIRF3 immunocytochemistry cell based assay was to identify small molecules which modulates TBK/IKKe kinase activity through on target substrate phosphorylation of the IRF-3 protein. On the first day of the experiment, MDA-MB-468 cells were plated in 384 well, black, clear-bottom, Poly D lysine coated plates at a density of 5000 cells/well in 45 ul of complete DMEM and allowed to adhere overnight. On the second day compounds were added to cells at a starting concentration of 10 uM with a serial dilution of 3-fold for a total of 10 points. The cells were incubated for 1 hr at 37° C. Cells were then stimulated with Poly(I:C) at a final concentration of 10 ug/ml, and were incubated for 2 hr at 37° C. Following the incubation, media was removed from the wells and the cells were fixed with 4% PFA for 15 min at RT. Cells were washed at least 3 times with PBS, and then permeabilized with ice-cold methanol for 10 min at RT. The washing step was repeated and the cells were then blocked using 10% goat serum/1% BSA, made up in PBS and allowed to incubate at RT for 1 hr. The cells were washed again and then treated with an anti-pIRF3 antibody at 4° C. overnight (1:250 dilution of Abcam ab76493 in PBS containing 1% BSA). On the third day the primary antibody was washed off and pIRF3 was detected by adding the secondary antibody conjugated to AlexaFluor488 (1:200 dilution of secondary antibody in PBS containing 1% BSA) for 1 hr at RT. Cells were washed and then counterstained with PI/RNase staining buffer for 15 min at RT and read on the Acumen Explorer laser scanning cytometer. The percentage of phosphorylation of the IRF-3 protein was calculated using the following algorithm, a modified version of the mean half width intensity (pIRF3 staining)/(PI staining or # of cells)×100%). IC50 curves were generated using the Genedata software.

[2] = MDA-MB-468 cells, Poly(I:C) stimulation, read-out: pIRF3 IC50
[3] = MDA-MB-468, read-out: pIRF3 IC50

IC50 (TBK1) [nM] | IC50 (IKKε) [nM] | IC50 [1, 2] [nM] | Structure (SMILES) | IC50 [1, 3] [nM]
< 100 | < 100 | < 100 | COc1cc(C(=O)N(C)C)ccc1-c1cc2nccc(-c3ccc(NC4CCNC4)c(C#N)c3)c2o1 (stereo not drawn) [Compound 521] | –
< 100 | < 100 | 1000 to 5000 | CN(C)C(=O)c1ccc(-c2cc3ncc(F)c(-c4ccc(OC5CCOCC5)c(C#N)c4)c3o2)c(F)c1 [Compound 301, 4-[7-[3-cyano-4-(oxan-4-yloxy)phenyl]-6-fluorofuro[3,2-b]pyridin-2-yl]-3-fluoro-N,N-dimethylbenzamide] | –
< 100 | < 100 | 100 to 1000 | COc1cc(C(=O)N(C)C)ccc1-c1cc2nccc(-c3ccc(O[C@@H]4CCNC[C@@H]4F)c(C#N)c3)c2o1 [Compound 153, 4-{7-[3-Cyano-4-((3S,4R)-3-fluoro-piperidin-4-yloxy)-phenyl]-furo[3,2-b]pyridin-2-yl}-3-methoxy-N,N-dimethyl-benzamide hydrochloride] | –
< 100 | < 100 | 100 to 1000 | COc1cc(C(=O)N(C)C)ncc1-c1cc2nccc(-c3cnc(OC4CCOCC4)c(C#N)c3)c2o1 [Compound 388, 5-[7-[5-cyano-6-(oxan-4-yloxy)pyridin-3-yl]furo[3,2-b]pyridin-2-yl]-4-methoxy-N,N-dimethylpyridine-2-carboxamide] | –
100 to 1000 | < 100 | 100 to 1000 | COc1cc(C(=O)NC2C3COCC32)ccc1-c1cc2nccc(-c3ccc(N4CC[C@@H](F)C4)c(C#N)c3)c2o1 (stereo partly drawn) [Compound 498] | –
< 100 | < 100 | 100 to 1000 | COc1cc(C(=O)NC2(CO)CCCC2)ccc1-c1cc2nccc(-c3ccc(OC4CCOCC4)c(C#N)c3)c2o1 [Compound 475, 4-{7-[3-Cyano-4-(tetrahydro-pyran-4-yloxy)-phenyl]-furo[3,2-b]pyridin-2-yl}-N-(1-hydroxymethyl-cyclopentyl)-3-methoxy-benzamide] | –
< 100 | < 100 | 1000 to 5000 | CC(=O)Nc1ccc(-c2cc3nccc(-c4ccc(OC5CCOCC5)c(C#N)c4)c3o2)cc1 [Compound 154] | –
< 100 | < 100 | < 100 | COc1cc(C(=O)N[C@@H]2CC[C@@H]3CN(C)C[C@@H]32)ccc1-c1cc2nccc(-c3ccc(OC4CCOCC4)c(C#N)c3)c2o1 [Compound 373, N-[(3aR,4R,6aS)-2-methyl-octahydrocyclopenta[c]pyrrol-4-yl]-4-[7-[3-cyano-4-(oxan-4-yloxy)phenyl]furo[3,2-b]pyridin-2-yl]-3-methoxybenzamide] | –
< 100 | < 100 | 100 to 1000 | COc1cc(C(=O)N[C@H]2[C@@H]3C[C@H]2CN(C)C3)ccc1-c1cc2nccc(-c3ccc(OC4CCOCC4)c(C#N)c3)c2o1 (single isomer, unassigned) [Compound 365] | –
< 100 | < 100 | 100 to 1000 | COc1cc(C(=O)N(C)C)ncc1-c1cc2nccc(-c3ccc(N4CCC(F)C4)c(C#N)c3)c2o1 (stereo in doubt) [Compound 390, 5-{7-[3-Cyano-4-((R)-3-fluoro-pyrrolidin-1-yl)-phenyl]-fluro[3,2-b]pyridin-2-yl}-4-methoxy-pyridine-2-carboxylic acid dimethylamide] | –
< 100 | < 100 | < 100 | COc1cc(C(=O)N(C)C)cnc1-c1cc2nccc(-c3ccc(NC4CCNC4)c(C#N)c3)c2o1 (stereo not drawn) [Compound 432, 6-(7-[3-cyano-4-[(pyrrolidin-3-yl)amino]phenyl]furo[3,2-b]pyridin-2-yl)-5-methoxy-N,N-dimethylpyridine-3-carboxamide] | –
< 100 | < 100 | 100 to 1000 | COc1cc(C(=O)N[C@@H]2CCN(C)C2)ccc1-c1cc2nccc(-c3ccc(OC4CCOCC4)c(C#N)c3)c2o1 [Compound 494, 5-{2-[4-(N—((R)-methyl-pyrrolidin-3-yl)-1-carbonyl)-2-methoxy-phenyl]-furo[3,2-b]pyridin-7-yl}-2-(tetrahydro-pyran-4-yloxy)-benzonitrile] | –
< 100 | < 100 | 1000 to 5000 | N#Cc1cc(-c2ccnc3cc(-c4ccc(C(=O)N5CC[C@H](F)C5)cc4)oc23)ccc1OC1CCOCC1 [Compound 136, 5-{2-[4-((S)-3-Fluoro-pyrrolidine-1-carbonyl)-phenyl]-furo[3,2-b]pyridin-7-yl}-2-(tetrahydro-pyran-4-yloxy)-benzonitrile] | –
< 100 | < 100 | < 100 | COc1cc(C(=O)N(C)CCO)ncc1-c1cc2nccc(-c3ccc(OC4CCOCC4)c(C#N)n3)c2o1 [Compound 376, 5-[7-[6-cyano-5-(oxan-4-yloxy)pyridin-2-yl]furo[3,2-b]pyridin-2-yl]-N-(2-hydroxyethyl)-4-methoxy-N-methylpyridine-2-carboxamide] | –

Structure (SMILES) | IC50 (TBK1) [nM] | IC50 (IKKε) [nM] | IC50 [1, 2] [nM] | IC50 [1, 3] [nM]
COc1cc(C(=O)NC2CN3CCC2CC3)cnc1-c1cc2nccc(-c3ccc(N4CC[C@H](F)C4)c(C#N)c3)c2o1 (stereo partly drawn) [Compound 439, N—(S)-1-Aza-bicyclo[2.20.2]oct-3-yl-6-{7-[3-cyano-4-((S)-3-fluoro-pyrrolidin-1-yl)-phenyl]-furo[3,2-b]pyridin-2-yl}-5-methoxy-nicotinamide] | < 100 | < 100 | 100 to 1000 | –
COc1cc(C(=O)N(C)C)ncc1-c1cc2nccc(-c3ccc(NC4CCOCC4)c(C#N)c3)c2o1 [Compound 325, 5-(7-[3-cyano-4-[(oxan-4-yl)amino]phenyl]furo[3,2-b]pyridin-2-yl)-4-methoxy-N,N-dimethylpyridine-2-carboxamide] | < 100 | < 100 | – | 100 to 1000
COc1cc(-c2cc3nccc(-c4ccc(OC5CCOCC5)c(C#N)c4)c3o2)ncc1C(=O)N(C)C [Compound 391, 6-[7-[3-cyano-4-(oxan-4-yloxy)phenyl]furo[3,2-b]pyridin-2-yl]-4-methoxy-N,N-dimethylpyridine-3-carboxamide] | 100 to 1000 | < 100 | – | 1000 to 5000
